Each structure is given as a SMILES string.

In data set [1] the test system is Plasmopara viticola. The experiment in a line: D-1a) residual-protective action against Plasmopara viticola on vines. The format is in vivo. The following applies: Plasmopara viticola, 144 h; 200 ppm; test D-1a) residual-protective; vine seedlings; evaluated after 6 days; read-out: inhibit fungal infestations. The protocol:
(§1) D-1: Action Against Plasmopara viticola on Vines
(§2) a) Residual-protective Action
Vine seedlings are sprayed at the 4- to 5-leaf stage with a spray mixture (0.02% active ingredient) prepared from a wettable powder formulation of the test compound. After 24 hours, the treated plants are infected with a sporangia suspension of the fungus. Fungus infestation is evaluated after incubation for 6 days at 95-100% relative humidity and +20° C.

Data set [2] concerns Plasmopara viticola. The experiment in a line: D-1b) residual-curative action against Plasmopara viticola on vines. The format is in vivo. The following applies: Plasmopara viticola, 144 h; 200 ppm; test D-1b) residual-curative; vine seedlings; evaluated 6 days after infection; read-out: inhibit fungal infestations. The protocol: as §1
b) Residual-curative Action
Vine seedlings are infected at the 4- to 5-leaf stage with a sporangia suspension of the fungus. After incubation for 24 hours in a humidity chamber at 95-100% relative humidity and +20° C., the infected plants are dried and sprayed with a spray mixture (0.02% active ingredient) prepared from a wettable powder formulation of the test compound. After the spray coating has dried, the treated plants are placed in the humidity chamber again.
Fungus infestation is evaluated 6 days after infection.

Data set [3] relates to Phytophthora. Kind of data set: D-2a) residual-protective action against Phytophthora on tomato plants. It is filed as in vivo. The following applies: Phytophthora, 120 h; 200 ppm; test D-2a) residual-protective, evaluated after 5 days, read-out: inhibit fungal infestations. The protocol: (§3) D-2: Action Against Phytophthora on Tomato Plants
as §2
After a cultivation period of 3 weeks, tomato plants are sprayed with a spray mixture (0.02% active ingredient) prepared from a wettable powder formulation of the test compound. After 48 hours, the treated plants are infected with a sporangia suspension of the fungus. Fungus infestation is evaluated after incubation of the infected plants for 5 days at 90-100% relative humidity and +20° C.

Data set [4] relates to Phytophthora. The experiment in a line: D-2b) systemic action against Phytophthora on tomato plants. It is filed as in vivo. To be noted: Phytophthora, 96 h; 200 ppm; test D-2b) systemic (soil watering), evaluated after 4 days, read-out: inhibit fungal infestations. The protocol: as §3
After a cultivation period of 3 weeks, tomato plants are watered with a spray mixture (0.02% active ingredient based on the volume of the soil) prepared from a wettable powder formulation of the test compound. […] After 96 hours, the treated plants are infected with a sporangia suspension of the fungus. Fungus infestation is evaluated after incubation of the infected plants for 4 days at 90-100% relative humidity and +20° C. […] Compounds E1.003, E1.004, E1.009, E1.011, E1.012, E1.014, E1.018, E1.019, E1.020, E1.021, E1.022, E1.023, E1.025, E1.031, E1.032, E1.033, E1.038, E1.040, E1.044, E1.045, E1.049, E1.050, E1.053, E1.055, E1.057, E1.064, E1.085, E1.089, E1.090, E1.091, E1.102, E1.08, E1.110, E1.112, E1.121, E1.125, E1.129, E1.139 and E1.141 at 200 ppm inhibit fungal infestations in both tests D-2a) and D-2b) by 80-100%.

Data set [5] relates to Phytophthora. The experiment in a line: D-3a) residual-protective action against Phytophthora on potato plants. The format is in vivo. To be noted: Phytophthora, 96 h; 200 ppm; test D-3a) residual-protective; potato plants (Bintje); evaluated after 4 days; read-out: inhibit fungal infestations. The protocol: (§4) D-3: Action Against Phytophthora on Potato Plants
as §2
2-3 week old potato plants (Bintje variety) are sprayed with a spray mixture (0.02% active ingredient) prepared from a wettable powder formulation of the test compound. After 48 hours, the treated plants are infected with a sporangia suspension of the fungus. Fungus infestation is evaluated after incubation of the infected plants for 4 days at 90-100% relative humidity and +20° C.

The subject of data set [6] is Phytophthora. Kind of data set: D-3b) systemic action against Phytophthora on potato plants. The following applies: Phytophthora, 96 h; 200 ppm; test D-3b) systemic (soil watering); potato plants (Bintje); evaluated after 4 days; read-out: inhibit fungal infestations. It is filed as in vivo. The protocol: as §4
2-3 week old potato plants (Bintje variety) are watered with a spray mixture (0.02% active ingredient based on the volume of the soil) prepared from a wettable powder formulation of the test compound. […] After 48 hours, the treated plants are infected with a sporangia suspension of the fungus. Fungus infestation is evaluated after incubation of the infected plants for 4 days at 90-100% relative humidity and +20° C. Fungal infestation is effectively controlled with compounds of Tables 1 to 35. Compounds E1.003, E1.004, E1.009, E1.011, E1.012, E1.019, E1.020, E1.021, E1.022, E1.025, E1.031, E1.032, E1.033, E1.038, E1.045, E1.049, E1.050, E1.053, E1.085, E1.089, E1.090, E1.091, E1.102, E1.110, E1.112, E1.121, E1.125, E1.129 at 200 ppm inhibit fungal infestations in both tests D-3a) and D-3b) by 80-100%.

With `C#CCOc1ccc(CCNC(=O)C(Cl)c2ccc(Br)cc2)cc1OC` (stereo not drawn), the melting point (in general, the temperature, or range, at which the solid turns liquid) was in the range of 100 to 102 °C.

The compound `C#CCOc1ccc(CCNC(=O)C(OCC#C)c2ccc(Br)cc2)cc1OC` (stereo not drawn) [Compound E1.022, 2-(4-bromo-phenyl)-N-[2-(3-methoxy-4-prop-2-ynyloxy-phenyl)-ethyl]-2-prop-2-ynyloxy-acetamide] came in with a melting point of 92 to 94 °C. Moreover, the inhibition at 200 ppm in the data set with Plasmopara viticola [1] was 80 to 100%. For the same compound, the inhibition at 200 ppm in the data set on Plasmopara viticola [2] fell in the range of 80 to 100%. Also, in the data set with Phytophthora [3], the inhibition at 200 ppm was in the range of 80 to 100%. The inhibition at 200 ppm in the data set with Phytophthora [4] is 80 to 100%. In the data set on Phytophthora [5], the inhibition at 200 ppm is 80 to 100%. Also, in the data set on Phytophthora [6], the inhibition at 200 ppm is 80 to 100%.

Compound `C#CCOc1ccc(CCNC(=O)C(OCC#C)c2ccc(C)cc2)cc1OC` (stereo not drawn) [Compound E1.045, 2-(4-tolyl)-N-[2-(3-methoxy-4-prop-2-ynyloxy-phenyl)-ethyl]-2-prop-2-ynyloxy-acetamide] displayed a melting point of 81 to 82 °C. The inhibition at 200 ppm with Plasmopara viticola [1] was 80 to 100%. In the data set with Plasmopara viticola [2], the inhibition at 200 ppm lay in the range of 80 to 100%. Further, the inhibition at 200 ppm in the data set with Phytophthora [3] lay in the range of 80 to 100%. Besides, the inhibition at 200 ppm in the data set on Phytophthora [4] lay within 80 to 100%. Also, the inhibition at 200 ppm in the data set on Phytophthora [5] lay in the range of 80 to 100%. In addition, in the data set with Phytophthora [6], the inhibition at 200 ppm was 80 to 100%.

As to `C#CCOc1ccc(CCNC(=O)C(OCC#C)c2ccc(CC)cc2)cc1OC` (stereo not drawn) [Compound E1.053, 2-(4-ethyl-phenyl)-N-[2-(3-methoxy-4-prop-2-ynyloxy-phenyl)-ethyl]-2-prop-2-ynyloxy-acetamide], the inhibition at 200 ppm in the data set with Plasmopara viticola [1], in the data set with Plasmopara viticola [2], in the data set on Phytophthora [3], with Phytophthora [4], with Phytophthora [5] and with Phytophthora [6] was 80 to 100% each time.

For the compound `C#CCOc1ccc(CCNC(=O)C(OCC#C)c2ccc(F)c(F)c2)cc1OC` (stereo not drawn) [Compound E1.085, 2-(3,4-difluoro-phenyl)-N-[2-(3-methoxy-4-prop-2-ynyloxy-phenyl)-ethyl]-2-prop-2-ynyloxy-acetamide], the inhibition at 200 ppm in the data set on Plasmopara viticola [1], in the data set with Plasmopara viticola [2], in the data set on Phytophthora [3], in the data set with Phytophthora [4], in the data set with Phytophthora [5] and in the data set with Phytophthora [6] was 80 to 100% each time.

Turning to `C#CCOc1ccc(CCNC(=O)C(OCC#C)c2ccc(F)c(Cl)c2)cc1OC` (stereo not drawn) [Compound E1.090, 2-(3-chloro-4-fluoro-phenyl)-N-[2-(3-methoxy-4-prop-2-ynyloxy-phenyl)-ethyl]-2-prop-2-ynyloxy-acetamide], the inhibition at 200 ppm in the data set on Plasmopara viticola [1], in the data set with Plasmopara viticola [2], with Phytophthora [3], with Phytophthora [4], in the data set on Phytophthora [5] and with Phytophthora [6] was 80 to 100% throughout.

Regarding `C#CCOc1ccc(CCNC(=O)C(OCC#C)c2ccc(Cl)c(F)c2)cc1OC` (stereo not drawn) [Compound E1.091, 2-(3-fluoro-4-chloro-phenyl)-N-[2-(3-methoxy-4-prop-2-ynyloxy-phenyl)-ethyl]-2-prop-2-ynyloxy-acetamide], the inhibition at 200 ppm with Plasmopara viticola [1], in the data set on Plasmopara viticola [2], in the data set on Phytophthora [3], with Phytophthora [4], with Phytophthora [5] and in the data set with Phytophthora [6] was 80 to 100% in each case.

In the case of `C#CCOc1ccc(CCNC(=O)C(OCC#C)c2ccc(Cl)c(Cl)c2)cc1OC` (stereo not drawn) [Compound E1.102, 2-(3,4-dichloro-phenyl)-N-[2-(3-methoxy-4-prop-2-ynyloxy-phenyl)-ethyl]-2-prop-2-ynyloxy-acetamide], the inhibition at 200 ppm in the data set with Plasmopara viticola [1], with Plasmopara viticola [2], with Phytophthora [3], with Phytophthora [4], in the data set with Phytophthora [5] and in the data set on Phytophthora [6] was 80 to 100% each time.

These data come from patent publication US6683211B1, “Phenyl-propargylether derivatives” (priority 2000, dated 2004).
